One assay concerns GABAR. Briefly: GABA-induced currents in cultured hippocampal neurons. It is filed as cell-based. The protocol:
Whole cell patch-clamp recordings were performed under voltage-clamp mode using an Axopatch 200B or 1D patch-clamp amplifier (Molecular Devices). Whole-cell currents were recorded at a holding potential of −60 mV unless indicated elsewhere, and signals were filtered at 2 kHz, digitized at 10 kHz (Digidata 1322A). Recording pipettes (3-5 MΩ) were filled with the intracellular solution that contained (mM): CsCl 140, HEPES 10, Mg-ATP 4, QX-314 5, pH 7.20; osmolarity, 290-295 mOsm. BAPTA (10 mM) was added in the intracellular solution (otherwise specified). The coverslips were continuously superfused with the extracellular solution containing (mM): NaCl 140, KCl 5.4, HEPES 10, CaCl2 1.3, glucose 20, pH 7.4; osmolarity, 305-315 mOsm. NMDA, GABA or AMPA induced currents were either applied by NMDA, GABA, AMPA either through perfusion fast-step (Warner Instruments). […]
Next, the inventor evaluated the selectivity profile for Npam02 on two other key ionotropic receptors of the central nervous system (CNS): α-amino-3-hydroxy-5-methyl-4-isoxazolepropionic acid receptor AMPAR, which are known to be a non-NMDA type ionotropic transmembrane receptor for glutamate that mediates fast synaptic transmission in the central nervous system (CNS) and GABA receptors which are the principal inhibitory ligand-gated ion channel receptor. […]

In the next assay the target is T1, GluN1/GluN2A^M112I (Rattus norvegicus, UniProt P35439+Q00959, M112I).
T1 construct: expressed in transfected cells; host or cells: HEK293
T1 sequence (Q00959 23-1464 M112I, other chains not shown): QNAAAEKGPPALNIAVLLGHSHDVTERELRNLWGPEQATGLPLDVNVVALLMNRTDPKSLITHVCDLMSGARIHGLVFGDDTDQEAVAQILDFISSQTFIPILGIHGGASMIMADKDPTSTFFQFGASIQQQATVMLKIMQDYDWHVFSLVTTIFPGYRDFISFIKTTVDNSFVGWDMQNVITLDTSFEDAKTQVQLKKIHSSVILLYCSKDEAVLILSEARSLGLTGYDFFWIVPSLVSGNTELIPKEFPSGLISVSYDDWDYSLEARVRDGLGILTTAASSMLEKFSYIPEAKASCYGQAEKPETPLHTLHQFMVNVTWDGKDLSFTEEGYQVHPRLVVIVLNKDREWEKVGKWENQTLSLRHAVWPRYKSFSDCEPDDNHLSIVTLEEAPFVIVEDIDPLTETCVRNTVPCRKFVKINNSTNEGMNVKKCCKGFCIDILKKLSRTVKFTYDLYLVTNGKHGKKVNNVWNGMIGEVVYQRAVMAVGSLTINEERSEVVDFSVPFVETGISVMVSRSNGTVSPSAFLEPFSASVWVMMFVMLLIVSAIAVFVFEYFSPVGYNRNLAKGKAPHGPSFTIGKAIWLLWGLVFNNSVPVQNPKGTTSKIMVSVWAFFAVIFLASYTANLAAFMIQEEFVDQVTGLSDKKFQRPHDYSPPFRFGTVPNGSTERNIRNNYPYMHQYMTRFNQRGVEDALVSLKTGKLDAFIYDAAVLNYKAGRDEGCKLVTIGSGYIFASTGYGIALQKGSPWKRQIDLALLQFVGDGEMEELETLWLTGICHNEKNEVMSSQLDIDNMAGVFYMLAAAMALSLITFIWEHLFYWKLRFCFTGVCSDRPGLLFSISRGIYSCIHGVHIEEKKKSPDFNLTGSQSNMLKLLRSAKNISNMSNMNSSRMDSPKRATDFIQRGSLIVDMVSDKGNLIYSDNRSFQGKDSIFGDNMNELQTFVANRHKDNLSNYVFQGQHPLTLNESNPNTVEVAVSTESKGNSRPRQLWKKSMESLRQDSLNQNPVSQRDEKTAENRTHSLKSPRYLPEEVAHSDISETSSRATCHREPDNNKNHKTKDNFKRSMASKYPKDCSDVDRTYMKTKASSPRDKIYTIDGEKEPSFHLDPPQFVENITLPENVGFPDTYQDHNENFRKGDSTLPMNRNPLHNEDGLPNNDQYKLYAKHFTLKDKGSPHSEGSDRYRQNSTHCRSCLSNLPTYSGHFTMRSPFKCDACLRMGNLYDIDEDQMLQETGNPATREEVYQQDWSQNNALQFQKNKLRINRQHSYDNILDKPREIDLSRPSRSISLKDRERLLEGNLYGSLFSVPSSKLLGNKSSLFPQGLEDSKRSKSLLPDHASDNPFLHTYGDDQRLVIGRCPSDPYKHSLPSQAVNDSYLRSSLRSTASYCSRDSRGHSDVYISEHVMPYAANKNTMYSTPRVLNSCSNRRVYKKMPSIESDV
Briefly: Patch clamp in HEK293 cells expressing mutant GluN1/GluN2A M112I. It is filed as cell-based. The protocol: (§1) Whole cell patch-clamp recordings were performed under voltage-clamp mode using an Axopatch 200B or 1D patch-clamp amplifier (Molecular Devices). Whole-cell currents were recorded at a holding potential of −60 mV unless indicated elsewhere, and signals were filtered at 2 kHz, digitized at 10 kHz (Digidata 1322A). Recording pipettes (3-5 MΩ) were filled with intracellular solution containing (mM): CsCl 140, HEPES 10, Mg-ATP 4, QX-314 5, pH 7.20; osmolarity, 290-295 mOsm. BAPTA (10 mM) was added in the intracellular solution (unless otherwise specified). The coverslips were continuously superfused with extracellular solution containing (mM): NaCl 140, KCl 5.4, HEPES 10, CaCl2 1.3, glucose 20, pH 7.4; osmolarity, 305-315 mOsm. NMDA-induced currents were applied by NMDA through perfusion fast-step (Warner Instruments). With perfusion fast-step system, NMDA application was achieved by using a two-square barrel glass tubing and depending on the age of the cultured neurons, CNQX (10 μM), TTX (0.5 μM) or BIC (10 μM) were added in the extracellular solution to minimize the activation of ionotropic glutamate receptors and voltage-gated sodium channels, respectively. All experiments were performed at room temperature. Recordings from at least six HEK293 cells/neurons were performed for all active compounds. […]
On the technique in general: The patch-clamp technique gives a direct electrical read-out from membranes.

The target of a further assay is T2, GluN1/GluN2A^A108G (Rattus norvegicus, UniProt P35439+Q00959, A108G).
T2 construct: expressed in transfected cells; host or cells: HEK293
T2 sequence (Q00959 23-1464 A108G, other chains not shown): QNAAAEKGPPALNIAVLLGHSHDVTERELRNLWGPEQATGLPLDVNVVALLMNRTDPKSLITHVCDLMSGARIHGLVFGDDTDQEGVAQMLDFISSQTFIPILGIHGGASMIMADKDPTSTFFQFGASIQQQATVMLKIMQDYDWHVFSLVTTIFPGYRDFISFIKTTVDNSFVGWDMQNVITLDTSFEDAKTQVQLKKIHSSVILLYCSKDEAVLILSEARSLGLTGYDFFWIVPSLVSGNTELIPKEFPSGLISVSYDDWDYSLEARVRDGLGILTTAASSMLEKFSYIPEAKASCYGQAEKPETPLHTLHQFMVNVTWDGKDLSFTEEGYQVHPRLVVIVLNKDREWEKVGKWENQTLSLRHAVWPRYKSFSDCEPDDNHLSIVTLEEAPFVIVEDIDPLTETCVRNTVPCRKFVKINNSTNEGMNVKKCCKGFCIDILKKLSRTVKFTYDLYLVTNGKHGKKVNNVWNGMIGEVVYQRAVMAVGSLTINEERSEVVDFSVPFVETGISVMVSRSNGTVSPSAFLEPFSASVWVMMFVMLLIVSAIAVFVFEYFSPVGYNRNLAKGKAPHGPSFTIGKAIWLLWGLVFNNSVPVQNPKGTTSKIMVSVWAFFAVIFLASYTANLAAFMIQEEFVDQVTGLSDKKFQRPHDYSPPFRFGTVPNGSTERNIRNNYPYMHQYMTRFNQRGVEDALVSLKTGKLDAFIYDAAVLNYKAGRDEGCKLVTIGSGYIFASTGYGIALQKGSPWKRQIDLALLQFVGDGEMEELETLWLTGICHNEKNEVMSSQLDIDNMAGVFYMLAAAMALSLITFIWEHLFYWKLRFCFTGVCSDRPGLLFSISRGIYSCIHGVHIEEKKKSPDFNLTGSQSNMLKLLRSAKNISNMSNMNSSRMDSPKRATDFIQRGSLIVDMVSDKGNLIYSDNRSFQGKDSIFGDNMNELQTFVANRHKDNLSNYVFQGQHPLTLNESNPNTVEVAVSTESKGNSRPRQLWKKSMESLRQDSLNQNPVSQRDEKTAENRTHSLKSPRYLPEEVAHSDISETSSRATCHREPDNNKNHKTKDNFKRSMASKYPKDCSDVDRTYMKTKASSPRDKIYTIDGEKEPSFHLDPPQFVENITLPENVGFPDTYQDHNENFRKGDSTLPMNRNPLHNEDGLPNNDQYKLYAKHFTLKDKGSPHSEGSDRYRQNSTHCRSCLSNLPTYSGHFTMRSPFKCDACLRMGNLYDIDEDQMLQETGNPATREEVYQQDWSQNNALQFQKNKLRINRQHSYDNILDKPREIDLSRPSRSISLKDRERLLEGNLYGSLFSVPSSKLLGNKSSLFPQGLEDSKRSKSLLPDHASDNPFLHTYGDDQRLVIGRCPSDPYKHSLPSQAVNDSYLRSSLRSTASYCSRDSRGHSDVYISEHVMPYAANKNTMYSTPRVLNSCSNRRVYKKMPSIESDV
Briefly: Patch clamp in HEK293 cells expressing mutant GluN1/GluN2A A108G. The assay is classed as cell-based. The procedure:
as §1

For a further assay, the system named is GluN1 or GluN2A mutants. As to the kind of experiment: Patch clamp in HEK293 cells, another 8 mutations within the defined pocket (summary). The assay is classed as cell-based, rat. The protocol:
as §1

For `COc1cccc(/C=N/NC(=O)c2ccccc2C)c1O` [Npam02, (E)-N′-(2-hydroxy-3-methoxybenzylidene)-2-methylbenzohydrazide], the “Effect on GABAR mediated currents” value in the assay on GABAR was “no observable effects”.

In the case of `CCOc1cc(Cl)c(Cl)c(/C=N/NC(=O)c2ccccc2Br)c1O` [Npam43, (E)-2-bromo-N′-(2,3-dichloro-5-ethoxy-6-hydroxybenzylidene)benzohydrazide], the figures for the Relative potentiation at GluN1/GluN2A^M112I (Table 3) and at GluN1/GluN2A^A108G (Table 3) were 255 ± 19% and 210 ± 9.0%, respectively. Besides, the “Net Difference potentiation” value on GluN1/GluN2A^M112I (normalized to wild-type) is on record as “+22.2 ± 0.94%”; on GluN1/GluN2A^A108G (normalized to wild-type), “+0.48 ± 0.01%”. Also, the Reduction in potentiation in the assay with GluN1 or GluN2A mutants is on record as 10-62%.

The record behind these values is patent US11166924B2, “N-methyl-d-aspartate receptor allosteric modulators and methods for their use” (Qingdao Primedicine Pharmaceutical Company, Ltd., priority 2016, dated 2021).
